Source: ChEMBL document CHEMBL5579821, “Non-kinase off-target inhibitory activities of clinically-relevant kinase inhibitors” (Eur J Med Chem, 2024)

Columns and labels:
[1] = clinical; settings: human, in vivo, po, 50 mg
[2] = cells; settings: Homo sapiens, NIH3T3
[3] = clinical; settings: human, plasma
[4] = clinical; settings: human, plasma, 5 mg
[5] = target: Proto-oncogene tyrosine-protein kinase receptor Ret (Homo sapiens, UniProt P07949)
[6] = target: T1, Aldo-keto reductase family 1 member C3 (Homo sapiens, UniProt P42330)
T1 sequence (P42330 whole entry): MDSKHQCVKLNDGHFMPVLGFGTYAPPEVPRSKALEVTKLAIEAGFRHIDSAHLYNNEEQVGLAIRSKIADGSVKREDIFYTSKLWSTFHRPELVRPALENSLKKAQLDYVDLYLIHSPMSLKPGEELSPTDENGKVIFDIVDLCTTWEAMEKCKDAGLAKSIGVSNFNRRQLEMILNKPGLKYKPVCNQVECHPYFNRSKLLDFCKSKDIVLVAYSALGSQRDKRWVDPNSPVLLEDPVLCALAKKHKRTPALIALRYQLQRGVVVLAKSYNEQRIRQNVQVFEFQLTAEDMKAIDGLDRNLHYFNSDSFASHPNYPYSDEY

[7] = clinical; settings: human, 300 mg
[8] = target: T2, Adenosine receptor A3 (Homo sapiens, UniProt P0DMS8)
T2 sequence (P0DMS8 whole entry): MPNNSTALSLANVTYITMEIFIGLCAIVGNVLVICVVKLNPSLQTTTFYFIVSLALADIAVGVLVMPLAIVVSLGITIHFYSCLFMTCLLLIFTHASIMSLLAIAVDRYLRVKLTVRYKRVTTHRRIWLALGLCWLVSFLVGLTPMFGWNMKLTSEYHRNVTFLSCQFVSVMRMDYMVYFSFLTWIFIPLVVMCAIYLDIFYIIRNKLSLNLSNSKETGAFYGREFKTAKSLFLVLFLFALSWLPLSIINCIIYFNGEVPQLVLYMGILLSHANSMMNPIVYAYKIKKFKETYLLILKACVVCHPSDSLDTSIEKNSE

Sequence of Proto-oncogene tyrosine-protein kinase receptor Ret (P07949 whole entry): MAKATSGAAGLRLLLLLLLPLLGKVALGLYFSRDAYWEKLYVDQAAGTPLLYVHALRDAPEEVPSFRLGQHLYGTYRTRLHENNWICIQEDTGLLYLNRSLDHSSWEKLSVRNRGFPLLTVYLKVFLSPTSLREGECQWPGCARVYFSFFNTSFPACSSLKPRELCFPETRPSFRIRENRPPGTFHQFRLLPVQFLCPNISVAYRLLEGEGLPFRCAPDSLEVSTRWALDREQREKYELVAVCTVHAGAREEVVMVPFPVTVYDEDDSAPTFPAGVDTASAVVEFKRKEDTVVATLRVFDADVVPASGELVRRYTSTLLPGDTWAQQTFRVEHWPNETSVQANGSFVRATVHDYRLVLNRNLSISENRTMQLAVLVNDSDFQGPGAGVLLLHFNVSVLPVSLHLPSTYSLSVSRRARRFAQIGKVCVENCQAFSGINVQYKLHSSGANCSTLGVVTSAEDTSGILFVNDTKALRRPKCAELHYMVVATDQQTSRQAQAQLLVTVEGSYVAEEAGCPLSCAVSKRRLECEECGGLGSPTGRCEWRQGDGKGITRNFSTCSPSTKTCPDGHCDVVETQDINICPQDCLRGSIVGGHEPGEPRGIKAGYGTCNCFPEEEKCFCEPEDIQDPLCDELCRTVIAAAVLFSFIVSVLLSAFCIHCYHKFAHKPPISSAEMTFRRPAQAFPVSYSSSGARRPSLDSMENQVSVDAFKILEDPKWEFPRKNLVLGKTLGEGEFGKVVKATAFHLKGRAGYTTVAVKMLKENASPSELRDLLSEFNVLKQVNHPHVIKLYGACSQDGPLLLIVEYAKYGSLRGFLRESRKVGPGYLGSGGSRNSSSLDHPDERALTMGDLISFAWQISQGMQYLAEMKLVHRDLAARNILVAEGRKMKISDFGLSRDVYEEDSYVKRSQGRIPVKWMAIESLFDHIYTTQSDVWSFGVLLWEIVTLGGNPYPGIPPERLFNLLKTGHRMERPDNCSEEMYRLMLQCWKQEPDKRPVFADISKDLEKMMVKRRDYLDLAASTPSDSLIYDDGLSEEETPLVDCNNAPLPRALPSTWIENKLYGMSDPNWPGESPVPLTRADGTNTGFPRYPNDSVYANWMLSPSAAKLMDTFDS

CO[C@@H]1[C@H](N(C)C(=O)c2ccccc2)C[C@H]2O[C@]1(C)n1c3ccccc3c3c4c(c5c6ccccc6n2c5c31)C(=O)NC4 [MIDOSTAURIN]
Cmax at 192 h [1]: 1600 ng/mL

Cc1cn(-c2cc(NC(=O)c3ccc(C)c(Nc4nccc(-c5cccnc5)n4)c3)cc(C(F)(F)F)c2)cn1 [NILOTINIB]
IC50 [2]: 374 nM | Cmax [3]: 1640 ng/mL

CNC(=O)c1ccccc1Sc1ccc2c(/C=C/c3ccccn3)n[nH]c2c1 [AXITINIB]
Cmax [4]: 27.8 ng/mL

CCCS(=O)(=O)Nc1ccc(F)c(C(=O)c2c[nH]c3ncc(-c4ccc(Cl)cc4)cc23)c1F [VEMURAFENIB]
IC50 [5]: 4.8 nM

CCc1cnn2c(NCc3ccc[n+]([O-])c3)cc(N3CCCC[C@H]3CCO)nc12 [DINACICLIB]
Kd [6]: 69 nM

Cc1cnc(Nc2ccc(OCCN3CCCC3)cc2)nc1Nc1cccc(S(=O)(=O)NC(C)(C)C)c1 [FEDRATINIB]
Cmax [7]: 971 ng/mL

COc1cc(Nc2ncc(F)c(Nc3ccc4c(n3)NC(=O)C(C)(C)O4)n2)cc(OC)c1OC
IC50 [8]: 18 nM
